Assay results: patent US9771344B2, “Peloruside analogs” (Universiteit Gent, priority 2013, dated 2017)

How the values were obtained:
[1] = tested on: cytoplasmic microtubule complex; experiment: Immunocytochemistry of the cytoplasmic microtubule complex; assay type: cell-based, rat kangaroo (Potorous tridactylus); conditions: PtK2 cells
Method: The PtK2 cell line was established from the kidney tissue of an adult male rat kangaroo (Potorous tridactylus).
Cells were seeded on glass coverslips in culture medium, supplemented with fetal bovine serum, at an initial concentration of 10,000/coverslip. After incubation overnight to allow spreading, treatments started at 37° C. for 1, 4 or 24 h. Cultures were then rinsed with phosphate-buffered saline and fixed in methanol at −20° C. The primary rabbit anti-tubulin polyclonal antibody was a gift from Dr. De Brabander (Janssen Life Sciences, Beerse, Belgium).
PtK2 cells were treated with DMSO (solvent control), JC168, or paclitaxel (positive control). After 1 hour, 4 hours, and 24 hours of incubation, cells were fixed and stained for the cytoplasmic microtubule complex.

[2] = tested on: MO4 cells; experiment: Chick heart invasion assay; assay type: cell-based, murine; conditions: 1 μg/ml, invasion of MO4 cells into embryonic chick heart
Method: Aggregates of MO4 cells were prepared by diluting single dissociated cells to appropriate concentrations in 6 ml complete growth medium in a 50 ml Erlenmeyer flask and incubated on a Gyrotory shaker at 37° C. and 70 rpm in a humidified atmosphere with 10% CO2 in air for 72 h. The aggregates were confronted overnight on top of semi-solid agar medium with precultured heart fragments (PHF, diameter 0.4 mm) prepared from 9-day-old chick embryos. Suspension organotypic cultures were incubated in 1.5 ml culture medium with or without a test compound on a Gyrotory shaker at 120 rpm under a controlled atmosphere containing 10% CO2 in air. Cells were fixed in Bouin-Hollande's solution and embedded in paraffin for histologic determination of cell invasiveness. Consecutive sections were stained with haematoxylin-eosin. Invasion is defined as the progressive occupation of PHF by the confronting test cells. Microscopic analysis of all consecutive sections from a confronting culture allowed the reconstruction of the interaction between the cell aggregate and the PHF in three dimensions.
The observation of different patterns of interaction has led to the following scale:
Grade I and II are observed with non-invasive cell populations, while grade III an IV are typical of invasion. To evaluate progression with time, histological analysis was done on confronting cultures fixed after different incubation periods.
MO4 cells were confronted with precultured heart fragments and the organotypic cultures were incubated in suspension in the presence of DMSO (solvent control), JC168 or paclitaxel (positive control) for 2-4 days.

[3] = tested on: MDA-MB231 GFP-LUC cells; experiment: Collagen type I invasion assay; assay type: cell-based, human; conditions: for Histological sections of the collagen gels: cells on top of the gel: after 14 days
Method: Invading cells were counted by phase-contrast microscopy as cells with extensions penetrating into the gel. (A) Invasion was calculated as the percentage of invading cells per high powered field (mean and standard deviation, n=10). Microphotographs of representative cultures of MDA-MB231 GFP-LUC cells treated with DMSO (B), 1 μg/ml JC168 (C), and 1 μg/ml paclitaxel (D) after 24 hours of incubation on top of a collagen type I gel. Scalebar=100 μm.
These cells are derived from a human mammary carcinoma and were stably transfected with green fluorescent protein (GFP) and luciferase (LUC).
Tissue invasion requires infiltration into an extracellular matrix (ECM) dominated by networks of collagen type I. The invasion model, presented here, consists of native, acid-extracted rat tail collagen type I containing nonhelical telopeptides situated at the N- and C-terminal ends. These telopeptides play an important role in intermolecular covalent cross-links necessary for a gel architecture presenting itself as a structural barrier to cancer cell traffic. Collagen type I solution was prepared with a final concentration of 1 mg ml^−1 collagen type I by mixing the following pre-cooled (stored at 4° C.) components: 4 volumes collagen type I (stock is 3.49 mg ml^−1), 5 volumes of calcium- and magnesium-free Hank's balanced salt solution (CMF-HBSS), 1 volume of minimal essential medium (MEM) (10×), 1 volume of 0.25 M NaHCO3, 2.65 volumes of standard medium and 0.3 volumes of 1M NaOH to make the solution alkaline. The collagen type I solution was gently poured into the wells of a 6-well plate. The experimental set-up was placed at 37° C. in a humidified atmosphere with 10% CO2 in air for at least 1 h. After gelification, a cell suspension of MDA-MB231 GFP-LUC cells was added on top of the collagen gels and incubated for 24 hours. […] Invasion is calculated as the percentage of invading cells per high powered field and is expressed as the mean and standard deviation. The number of examined fields is 10. The sections were stained with hematoxylin-eosin.
MDA-MB231 GFP-LUC cells were treated with DMSO (solvent control), JC168, or paclitaxel (positive control) or left untreated (control) and incubated on a collagen type I gel. After 24 hours of incubation, invasion into the collagen was evaluated by phase-contrast microscopy. […] From this we can conclude that the number of invaded cells is clearly lower in the treated cultures.

[4] = tested on: MO4 cells; experiment: MTT assay (MTT conversion); assay type: cell-based, murine; conditions: 4 days
Method: FIG. 3: JC168 inhibits MTT conversion. MO4 cells were treated with dimethyl sulfoxide (DMSO, solvent control), 0.001, 0.01, 0.1 or 1 μg/ml JC168 for 4 days. Then, 3-(4,5-dimethylthiazol-2-yl)-2,5-diphenyltetrazolium bromide was added and the cultures were incubated to allow the cells to reduce the MTT into formazan. The formazan was dissolved and optical density was measured. Data represent optical density (OD) as a percentage of solvent control (mean and standard deviation, n=6).
FIG. 4: Comparison of JC168 and paclitaxel to inhibit MTT conversion. MO4 cells were treated with dimethyl sulfoxide (DMSO, solvent control), 1 μg/ml JC168 or 1 μg/ml paclitaxel for 4 days. Then, 3-(4,5-dimethylthiazol-2-yl)-2,5-diphenyltetrazolium bromide was added and the cultures were incubated to allow the cells to reduce the MTT into formazan. The formazan was dissolved and optical density was measured. Data represent optical density (OD) as a percentage of solvent control (mean and standard deviation, n=6).
As test cells for functional assays MO4 cells were used, which are murine virally transformed fibrosarcoma-like cells. […]
MTT (3-(4,5-Dimethylthiazol-2-yl)-2,5-diphenyltetrazolium bromide, a yellow tetrazole), was reduced to purple formazan in living cells. […] The absorbance of this colored solution was quantified by measuring it at a wavelength between 500 and 600 nm by a spectrophotometer. […]

[5] = tested on: MO4 cells; experiment: Sulforhodamine B assay (cell growth); assay type: cell-based, murine; conditions: 4 days
Method: MO4 cells were treated with dimethyl sulfoxide (DMSO, solvent control), 0.001, 0.01, 0.1 or 1 μg/ml JC168 for 4 days. After said 4 days of incubation the cells were fixed and stained with sulforhodamine B to determine cellular protein content. Excess dye was removed by washing. Protein-bound dye was dissolved and optical density was measured. Data represent optical density (OD) as a percentage of solvent control (mean and standard deviation, n=6).
FIG. 2: Comparison of JC168 and paclitaxel to inhibit cell growth. MO4 cells were treated with dimethyl sulfoxide (DMSO, solvent control), 1 μg/ml JC168 or 1 μg/ml paclitaxel for 4 days. After said 4 days of incubation the cells were fixed and stained with sulforhodamine B to determine cellular protein content. Excess dye was removed by washing. Protein-bound dye was dissolved and optical density was measured. Data represent optical density (OD) as a percentage of solvent control (mean and standard deviation, n=6). […]
The sulforhodamine B (SRB) assay was used for cell density determination. […] The method allows a large number of samples to be tested within a few days, and is a quantitative assay for growth inhibition by microtubule inhibitors. […] The protein-bound dye was dissolved in 10 mM Tris base solution for OD determination at 510 nm using a microplate reader. […]

SMILES | Effect on the cytoplasmic microtubule complex, 1 hour ([1]; 0.1 μg/ml) | Effect on the cytoplasmic microtubule complex, 4 hours ([1]; 0.1 μg/ml) | Effect on the cytoplasmic microtubule complex, 24 hours ([1]; 0.1 μg/ml) | Effect on the cytoplasmic microtubule complex, 1 hour ([1]; 1.0 μg/ml) | Effect on the cytoplasmic microtubule complex, 4 hours ([1]; 1.0 μg/ml) | Effect on the cytoplasmic microtubule complex, 24 hours ([1]; 1.0 μg/ml) | Number of organotypic cultures classified Grade I ([2]; incubation 2 days) | Number of organotypic cultures classified Grade II ([2]; incubation 3 days) | Number of organotypic cultures classified Grade II ([2]; incubation 4 days) | Number of organotypic cultures classified Grade III ([2]; incubation 4 days) | Potency to inhibit invasion in collagen type I as compared to paclitaxel ([3]; MDA-MB231 GFP-LUC cells, 24 hours) [%] | Effect on invasion into collagen type I ([3]; MDA-MB231 GFP-LUC cells, 24 hours, FIG. 5) | Histological sections of the collagen gels: cells on top of the gel [3] | Potency to inhibit MTT conversion as compared to paclitaxel ([4]; 1 μg/ml each, FIG. 4) [%] | Effect on MTT conversion into formazan ([4]; 0.001-1 μg/ml, FIG. 3) | Potency to inhibit cell growth as compared to paclitaxel ([5]; 1 μg/ml each, FIG. 2) [%] | Effect on cell growth (sulforhodamine B, words) ([5]; 0.001-1 μg/ml, FIG. 1)
CC[C@H](/C=C(/C)[C@@H]1C[C@@H](OC)C[C@H](O)C(C)(C)c2cccc(c2)C[C@@H](O)C(O)C(=O)O1)CO (stereo partly drawn) [JC168, (1′Z,3R,3′R,4S,7S,9S,11S)-3,4,11-Trihydroxy-7-(3′-hydroxymethyl-1′-methylpent-1′-enyl)-9-methoxy-12,12-dimethyl-6-oxabicyclo[11.3.1]heptadeca-1(17),13,15-trien-5-one] | disturbed | disturbed | disturbed | disturbed | disturbed | disturbed | n = 5 | n = 5 | n = 3 | n = 3 | 89 | inhibits invasion | low number of cells on top of the gel | 3 | inhibits the conversion | 5 | inhibits cell growth
CC(=O)O[C@H]1C(=O)[C@@]2(C)[C@H]([C@H](OC(=O)c3ccccc3)[C@]3(O)C[C@H](OC(=O)[C@H](O)[C@@H](NC(=O)c4ccccc4)c4ccccc4)C(C)=C1C3(C)C)[C@]1(OC(C)=O)CO[C@@H]1C[C@@H]2O [paclitaxel, reference compound] | normal | disturbed | disturbed | disturbed | disturbed | disturbed |  |  | n = 5 |  |  |  | low number of cells on top of the gel |  |  |  | 
